The text below walks through data of paper PMC7618403 (Science (New York, N.Y.), 2026).

The target in assay [1] is T1, RAD51 (filament on ssDNA capped by XRCC3 complex) (Homo sapiens, UniProt Q06609).
T1 construct: with DNA repair protein XRCC3; DNA repair protein XRCC2
Description: cryo-EM structure, […] A. It is filed as binding. Conditions: RAD51 active sites, ATP with Mg2+ and Ca2+.

In assay [2] the target is T2, XRCC3 complex (XRCC3-RAD51C-RAD51D-XRCC2), XRCC3 site (Homo sapiens, UniProt O43542, E143A).
T2 construct: heterotetramer co-expressed in baculovirus-infected insect cells, purified; DNA repair protein XRCC2
Nature of the assay: ATP hydrolysis assay. It is filed as biochemical. The following applies: catalytic glutamate mutant.

Assay [3] concerns the target T3, XRCC3 complex (XRCC3-RAD51C-RAD51D-XRCC2), XRCC2 site (Homo sapiens, UniProt O43543).
T3 construct: heterotetramer co-expressed in baculovirus-infected insect cells, purified; caps a RAD51-ssDNA filament; with DNA repair protein XRCC3
Nature of the assay: cryo-EM structure, […] A. It is filed as binding. The following applies: XRCC2 nucleotide site; ATP with Mg2+ and Ca2+; capped RAD51-ssDNA filament.

For assay [4], the target named is T4, XRCC3 complex (XRCC3-RAD51C-RAD51D-XRCC2), XRCC3 site (Homo sapiens, UniProt O43542).
T4 construct: heterotetramer co-expressed in baculovirus-infected insect cells, purified; in the structure it caps a RAD51-ssDNA filament; DNA repair protein XRCC2
Description: ATP hydrolysis assay. It is filed as biochemical. Conditions: catalytic glutamate mutant.
Target sequence in this assay (O43502 whole entry E161A partner, one chain of several): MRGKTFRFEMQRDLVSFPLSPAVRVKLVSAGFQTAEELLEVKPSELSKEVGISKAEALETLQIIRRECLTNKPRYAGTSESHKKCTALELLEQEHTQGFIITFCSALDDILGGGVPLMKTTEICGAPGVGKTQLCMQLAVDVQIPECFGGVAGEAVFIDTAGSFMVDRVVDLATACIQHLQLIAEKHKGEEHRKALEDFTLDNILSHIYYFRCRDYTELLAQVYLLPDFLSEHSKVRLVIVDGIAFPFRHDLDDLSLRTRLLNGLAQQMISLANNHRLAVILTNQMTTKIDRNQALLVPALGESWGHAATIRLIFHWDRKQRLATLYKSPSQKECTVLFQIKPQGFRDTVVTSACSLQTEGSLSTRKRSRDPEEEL

The target of assay [5] is T5, XRCC3 complex (XRCC3-RAD51C-RAD51D-XRCC2), RAD51D site (Homo sapiens, UniProt O75771).
T5 construct: heterotetramer co-expressed in baculovirus-infected insect cells, purified; caps a RAD51-ssDNA filament; with DNA repair protein XRCC3; DNA repair protein XRCC2
Description: cryo-EM structure, […] A. It is filed as binding. Conditions: RAD51D nucleotide site; ATP with Mg2+ and Ca2+; capped RAD51-ssDNA filament.

For assay [6], the target named is T4, XRCC3 complex (XRCC3-RAD51C-RAD51D-XRCC2), XRCC3 site. Description: cryo-EM structure, […] A. The assay is classed as binding. Conditions: XRCC3 active site; ATP with Mg2+ and Ca2+; capped RAD51-ssDNA filament.
For assay [7], the target named is T6, RAD51B complex (RAD51B-RAD51C-RAD51D-XRCC2; BCDX2) (Homo sapiens, UniProt O15315+O43502, O43502:E161A).
T6 construct: heterotetramer; DNA repair protein XRCC2
Nature of the assay: ATP hydrolysis assay. It is filed as biochemical. The following applies: catalytic glutamate mutant.

Assay [8] has as its target T7, (Homo sapiens, UniProt O15315+O43502).
T7 construct: gene RAD51B; heterotetramer; DNA repair protein XRCC2
Nature of the assay: ATP hydrolysis assay. The assay is classed as biochemical. The following applies: coupled RAD51B and RAD51C ATPase sites.

The target in assay [9] is T8, RAD51 (human, UniProt Q06609 1-339).
T8 chain: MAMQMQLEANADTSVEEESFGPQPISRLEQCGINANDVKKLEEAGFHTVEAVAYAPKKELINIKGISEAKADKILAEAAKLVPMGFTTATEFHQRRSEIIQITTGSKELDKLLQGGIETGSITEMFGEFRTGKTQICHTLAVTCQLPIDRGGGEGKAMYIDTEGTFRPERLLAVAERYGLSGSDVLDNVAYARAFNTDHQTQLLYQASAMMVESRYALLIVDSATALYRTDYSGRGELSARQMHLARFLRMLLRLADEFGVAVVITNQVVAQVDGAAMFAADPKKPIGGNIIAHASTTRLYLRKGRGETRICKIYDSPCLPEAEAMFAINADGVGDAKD
Nature of the assay: MST.

The target of assay [10] is T8, RAD51. Description: MST; 1 mM ATP and CaCl2.

T2 sequence (O43542 whole entry E143A, one chain of several): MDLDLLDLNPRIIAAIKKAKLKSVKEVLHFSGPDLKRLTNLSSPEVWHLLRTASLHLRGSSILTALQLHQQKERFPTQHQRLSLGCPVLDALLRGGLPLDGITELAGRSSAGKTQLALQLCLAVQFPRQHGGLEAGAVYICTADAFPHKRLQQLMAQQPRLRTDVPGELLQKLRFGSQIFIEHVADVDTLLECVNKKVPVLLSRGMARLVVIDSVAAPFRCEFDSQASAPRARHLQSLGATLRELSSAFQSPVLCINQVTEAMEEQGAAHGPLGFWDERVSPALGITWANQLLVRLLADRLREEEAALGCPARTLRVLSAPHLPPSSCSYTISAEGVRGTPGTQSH
T7 sequence (O15315 whole entry, one chain of several): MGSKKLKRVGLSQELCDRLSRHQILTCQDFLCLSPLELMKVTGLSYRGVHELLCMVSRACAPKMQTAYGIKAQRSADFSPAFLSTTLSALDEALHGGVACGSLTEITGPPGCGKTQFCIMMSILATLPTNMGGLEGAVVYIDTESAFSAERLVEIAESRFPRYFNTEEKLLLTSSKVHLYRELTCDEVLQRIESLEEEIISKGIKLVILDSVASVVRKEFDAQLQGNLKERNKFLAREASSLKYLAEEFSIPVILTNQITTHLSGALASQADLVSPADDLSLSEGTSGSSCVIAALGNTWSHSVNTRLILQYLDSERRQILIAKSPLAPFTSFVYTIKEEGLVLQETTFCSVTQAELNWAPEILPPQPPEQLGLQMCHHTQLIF
T6 sequence (O15315 whole entry, one chain of several): as above
T6 sequence (O43502 whole entry E161A, one chain of several): as the sequence (O43502 whole entry E161A partner, one chain of several) above

Consider `Nc1ncnc2c1ncn2[C@@H]1O[C@H](COP(=O)(O)OP(=O)(O)OP(=O)(O)O)[C@@H](O)[C@H]1O` [ATP], for which the “cryo-EM structure, 2.7 A” value in assay [1] is “XRCC3 and RAD51 protomers were also bound to ATP”; in assay [3], “RAD51D and XRCC2 were both bound to ATP”; in assay [5] it was “RAD51D and XRCC2 were both bound to ATP”; in [6], “XRCC3 and RAD51 protomers were also bound to ATP”. Also, the ATP hydrolysis assay result in [2] was “residual activity was eliminated by an XRCC3 catalytic glutamate mutant (XRCC3^E143A)”; in [4], “mutation of the catalytic glutamate in RAD51C (RAD51C^E161A) had no effect on ATPase activity”; in [7], “the same mutation abolishing the ATPase activity in the RAD51B complex”; in assay [8], “XRCC3 complex displayed minimal ATPase activity relative to the RAD51B complex”.

B1: XRCC3-RAD51C-RAD51D-XRCC2 complex (complex)
chain 1: MDLDLLDLNPRIIAAIKKAKLKSVKEVLHFSGPDLKRLTNLSSPEVWHLLRTASLHLRGSSILTALQLHQQKERFPTQHQRLSLGCPVLDALLRGGLPLDGITELAGRSSAGKTQLALQLCLAVQFPRQHGGLEAGAVYICTEDAFPHKRLQQLMAQQPRLRTDVPGELLQKLRFGSQIFIEHVADVDTLLECVNKKVPVLLSRGMARLVVIDSVAAPFRCEFDSQASAPRARHLQSLGATLRELSSAFQSPVLCINQVTEAMEEQGAAHGPLGFWDERVSPALGITWANQLLVRLLADRLREEEAALGCPARTLRVLSAPHLPPSSCSYTISAEGVRGTPGTQSH
chain 2: MRGKTFRFEMQRDLVSFPLSPAVRVKLVSAGFQTAEELLEVKPSELSKEVGISKAEALETLQIIRRECLTNKPRYAGTSESHKKCTALELLEQEHTQGFIITFCSALDDILGGGVPLMKTTEICGAPGVGKTQLCMQLAVDVQIPECFGGVAGEAVFIDTEGSFMVDRVVDLATACIQHLQLIAEKHKGEEHRKALEDFTLDNILSHIYYFRCRDYTELLAQVYLLPDFLSEHSKVRLVIVDGIAFPFRHDLDDLSLRTRLLNGLAQQMISLANNHRLAVILTNQMTTKIDRNQALLVPALGESWGHAATIRLIFHWDRKQRLATLYKSPSQKECTVLFQIKPQGFRDTVVTSACSLQTEGSLSTRKRSRDPEEEL
chain 3: MGVLRVGLCPGLTEEMIQLLRSHRIKTVVDLVSADLEEVAQKCGLSYKALVALRRVLLAQFSAFPVNGADLYEELKTSTAILSTGIGSLDKLLDAGLYTGEVTEIVGGPGSGKTQVCLCMAANVAHGLQQNVLYVDSNGGLTASRLLQLLQAKTQDEEEQAEALRRIQVVHAFDIFQMLDVLQELRGTVAQQVTGSSGTVKVVVVDSVTAVVSPLLGGQQREGLALMMQLARELKTLARDLGMAVVVTNHITRDRDSGRLKPALGRSWSFVPSTRILLDTIEGAGASGGRRMACLAKSSRQPTGFQEMVDIGTWGTSEQSATLQGDQT
chain 4: MCSAFHRAESGTELLARLEGRSSLKEIEPNLFADEDSPVHGDILEFHGPEGTGKTEMLYHLTARCILPKSEGGLEVEVLFIDTDYHFDMLRLVTILEHRLSQSSEEIIKYCLGRFFLVYCSSSTHLLLTLYSLESMFCSHPSLCLLILDSLSAFYWIDRVNGGESVNLQESTLRKCSQCLEKLVNDYRLVLFATTQTIMQKASSSSEEPSHASRRLCDVDIDYRPYLCKAWQQLVKHRMFFSKQDDSQSSNQFSLVSRCLKSNSLKKHFFIIGESGVEFC
As to B1, binding in assay [9] was put at a Kd of 57 nM.

B2: RAD51C-XRCC3 heterodimer (complex)
chain 1: B1 chain 2
chain 2: B1 chain 1
Regarding B2, binding in assay [10] was put at a Kd of 93 nM.

A word on the Kd: it is the concentration at which binding is half-saturated.
